Results taken from patent publication US20260144769A1, “4-PHENYLBUTYRATE RESTORED GABA UPTAKE AND REDUCED SEIZURES IN SLC6A1 VARIANT-MEDIATED DISORDERS” (Vanderbilt University, priority 2022, published 2026).

Target: T1, GAT-1 (Mus musculus, UniProt P31648)
T1 construct: endogenous in cells; host or cells: primary cortical astrocytes from wild-type littermate pups (C57BL/6J background), passage 2
Test: 3H GABA uptake, cortical astrocytes cultured from wildtype pups
Assay type: cell-based
Details: wt astrocytes (pooled from two mouse lines); PBA 2 mM, 24 hr; SNAP5114 30 μM
Experimental: Mouse cortical astrocytes or neurons were cultured from postnatal pus at day 0-3 days old for astrocytes and day 0 for neurons from the SLC6A1^+/A288V or SLC6A1^+/S295L mouse line. FIGS. 7A-B show astrocytes under passage 2 were grown in […] dishes and passaged into 35-mm^2 dishes before GABA uptake assay.
FIGS. 7C-D show neurons directly cultured in the 35-mm^2 dishes and GABA uptake was evaluated between day 15-17 days after culture. CI-966 (50 μM) and NNC711 (35 μM) was applied 30 min before preincubation and removed during preincubation. GAT-3 inhibitor SNAP5114 (30 μM) was applied during GABA uptake to make sure only GAT-1 activity was measured. The wildtype astrocytes (FIGS. 7A-B) or cortical neurons (FIGS. 7C-D) of either SLC6A1^+/A288V or SLC6A1^+/S295L were taken as 1. The cultures derived from each mutant mouse was compared to the culture from its own wildtype littermates. […] The wildtype data were pooled from two mouse lines. […] The graph represents the relative GABA uptake level normalized to cells of its own genotype treated with DMSO. CI-966 (50 μM) or NNC-711 (35 μM) was applied 30 min before preincubation and removed during preincubation. Two-way analysis of variance followed by Bonferroni multiple comparison test was used. Values were expressed as mean±S.E.M. In FIG. 7A and FIG. 7C, ***p<0.001 vs. wt; § § § P<0.001 S295L vs. A288V. […]

SMILES: O=C(O)CCCc1ccccc1 [PBA, 4-phenylbutyric acid]
- GABA uptake activity normalized to its own DMSO condition: 1.22±0.058
